Experimental data reported in article PMC4853715, “Design, Synthesis and Antitumor Activity of Novel link-bridge and B-Ring Modified Combretastatin A-4 (CA-4) Analogues as Potent Antitubulin Agents” (Scientific Reports, 2016).

Assays:
[1] = Body weight of treated xenograft mice; type: in vivo, BALB/c nude mice; conditions: whole treatment period
Method: (§1) Male BALB/c nude mice, five weeks old and weighing 18–22 g, were supplied by Shanghai Laboratory Animal Limited Company. The mice were raised in air-conditioned rooms under controlled lighting (12 h light-dark cycle at 24 °C) and were fed with standard laboratory food and water ad libitum. Before injection into the mice, the A549 cells were harvested by trypsinization and washed three times with cold serum-free medium and then injected in a total volume of 0.1 mL using a 1 mL latex-free syringe (BD) within 30 min of harvest. Mice were inoculated subcutaneously with A549 cells (5.0 × 10^6) on their shoulders. […] The control group received 0.9% normal saline. Tumor size was measured once every 2 days in two per-pendicular dimensions with Vernier calipers and converted to tumor volume (TV) using the formula: (ab^2)/2, where a and b refer to the longer and shorter dimensions, respectively. The body weight of the animals was measured twice a week to assess toxicity of the treatments at the same time as the tumor dimension measurement and the mortality was monitored daily. After the treatments for eight weeks, the animals were euthanized by cervical dislocation. This study conformed to the Guide for the Care and Use of Laboratory Animals as published by the US National Institutes of Health and was approved by the Institutional Ethics Review Board of Nanjing University.

[2] = system: Bax, PARP, Bcl-2, Caspase3 in A549 cells; assay: Western blot of apoptosis-related proteins; type: cell-based, human
Method: (§2) Total cellular proteins are extracted with lysis buffer (50 mmol/l Tris [pH 7.4], 150 mmol/l NaCl, 1% Triton X-100, 1% deoxycholicphenyl methylsulfonyl fluoride, 1 mg/ml aprotinin, 5.0 mmol/l sodium pyrophosphate, […] leupeptin, 0.1 mmol/l phenylmethylsulfonyl fluoride, and 1 mmol/l DTT). Protease inhibitors are added immediately before use. The cells are harvested at the end of treatment and extracted for western blot analysis as described previously. After washing twice with PBS, the cultured cells were collected and lysed in lysis buffer (100 mmol/l Tris-Cl, pH 6.8, 4% (m/v) SDS, 20% (v/v) glycerol, 200 mmol/l β-mercaptoethanol, 1 mmol/l phenylmethylsulfonyl fluoride, and […] aprotinin). The lysates were centrifuged at 13,000 × g for 15 min at 4 °C. The concentration of total proteins was measured using the BCA assay method with Varioskan spectrofluorometer and spectrophotometer (Thermo) at 562 nm. Protein samples were separated with 15% SDS-PAGE and transferred onto the polyvinyldifluoride (PVDF) membranes (Millipore, IPVH 304 F0). Immune complexes were formed by incubation of proteins with primary antibodies overnight at 4 °C followed by IRDye^TM 800 conjugated second antibody for 1 hour at 37 °C. Immunoreactive protein bands were detected with an Odyssey Scanning System (LI-COR Biosciences, 9201-03). Antibodies: primary antibodies of cyclin B1, Cdc2, p-Cdc2 (Thr14/Tyr15), Cdc25C, and p21WAF1/Cip1 were all obtained from EPITOMICS (Abcam, Cambridge, UK); antibodies of Bax and Bcl-2 were obtained from Bioworld (Bioworld Technology, Inc., MN, USA); antibodies of caspase-3, and PARP were all obtained from Santa Cruz (Santa Cruz, CA); and antibody of GAPDH was from Boster (Wuhan, China). The secondary antibodies peroxidase-conjugated affinipure Goat Anti-Mouse IgG (H + L) (111-035-003), peroxidase-conjugated affinipure Goat Anti-Rabbit IgG (H + L) (111-035-003) were obtained from Jackson Immuno Research Laboratories, Inc. (USA).

[3] = system: Tubulin isolated from porcine brain tissue; assay: Tubulin polymerization assay (kit, absorbance 340 nm); type: biochemical; conditions: 37 °C
Method: Tubulin polymerization was determined with the tubulin polymerization assay kit (Cytoskeleton, Denver, CO which was purchased from Cytoskeleton, Beyotime, China. Tubulin isolated from porcine brain tissue was used in this commercial kit.) It is based on the principal that light is scattered by microtubules to an extent that is proportional to the concentration of the microtubule polymer. Compounds that interact with tubulin will alter the polymerization of tubulin, and this can be detected using a spectrophotometer. Tubulin polymerization dynamics was monitored through measuring the change of absorbance at 340 nm every 2 min for 30 min at 37 °C on a spectrophotometer (Perkin-Elmer).

[4] = system: 293T, Macrophage, and L02; assay: MTT assay on non-cancer cell lines; type: cell-based, human
[5] = system: A549 xenograft tumor; assay: In vivo anti-tumor activity, A549 xenograft; parameters: species or system BALB/c nude mice; conditions: for average weight of the excised tumors: control group 1.802 g; for tumor growth reduction versus vehicle at end of observation: intraperitoneal, every other day
Method: Mice were subcutaneously inoculated with injections of 5.0 × 10^6 cells/nude mice. After 12–14 days, tumor sizes were determined using micrometer calipers, and then nude mice with similar tumor volume (~100 mm^3, eliminate mice with tumors that are too large or too small) were randomly divided them into four groups (with six nude mice/group). […] Both drugs, as well as the vehicle control, were administered every other day for the entire period of observation.
as §1

[6] = system: HepG2, Hela, MCF-7, A549, HT-29 and SSC-4 cell lines; assay: MTT assay, panel of six cancer cell lines; type: cell-based; conditions: Homo sapiens; range over six cell lines; read-out: IC50 values against a panel of cancer cell lines
Method: The in vitro anticancer activities of the prepared compounds against HepG2, Hela, MCF-7, A549, HT-29 and SSC-4 cell lines were evaluated as described in the literature. Target tumor cells were grown to log phase in DMEM medium supplemented with 10% fetal bovine serum. After reaching a dilution of 1 × 10^5 cells Ml^−1 with the medium, 100 μL of the obtained cell suspension was added to each well of 96-well culture plates. Subsequently, incubation was performed at 37 °C in 5% CO2 atmosphere for 12 h before the cytotoxicity assessment. Tested samples at preset concentrations were added to 6 wells with CA-4 being employed as a positive reference. After 48 h exposure period, 25 μL of PBS containing 2.5 mg mL^−1 of MTT (Sigma, USA) was added to each well. After 4 h, the medium was replaced by 150 μL DMSO to dissolve the purple formazan crystals produced. The absorbance at 570 nm of each well was measured with Synergy™ 2 Multi-Mode Microplate Reader. Cell viability (%) was calculated using the following equation: cell viability (%) = (Atreatment/Acontrol) × 100%. The data represented the mean of three independent experiments in triplicate and were expressed as means ± SD.

[7] = system: Cyclin B1, Cdc25c, Cdc2, P21 in A549 cells; assay: Western blot of G2/M-related proteins; type: cell-based, human; conditions: A549, 0.5-2.0 μM 48 h; 3.0 μM 12-48 h
Method: as §2

COc1cc(/C=N/NC(=O)c2cn(Cc3ccccc3)c3ccccc23)cc(OC)c1OC [Compound 7]
body weight changes during treatment [1]: no significant weight changes | level of Bax ([2]; A549, 0.5, 1 and 2 μM, 48 h): efficiently up-regulated | level of anti-apoptotic proteins (Bcl-2, Bcl-xl) ([2]; A549, 0.5, 1 and 2 μM, 48 h): down-regulated | cleaved caspase-3 and PARP ([2]; A549, 48 h): up regulation | tubulin polymerization (in words) ([3]; 1.0 μM): slightly inhibiting | tubulin polymerization (in words) ([3]; 5.0 μM): nearly completely blocked | cytotoxic effects on three normal human cells (in words) [4]: minimal | average weight of the excised tumors ([5]; 20 mg/kg group): 0.951 g | tumor growth reduction versus vehicle at end of observation ([5]; 20 mg/kg): 47% | average weight of the excised tumors ([5]; 30 mg/kg group): 0.553 g | tumor growth reduction versus vehicle at end of observation ([5]; 30 mg/kg): 70% | IC50 [6]: 0.08 to 35.6 µM | cdc25c expression [7]: down-regulated in a dose-dependent and time-dependent manner | cyclinB1 expression [7]: down-regulated in a dose-dependent and time-dependent manner | p21 expression [7]: increased
